Values belong to the compound of their own block, whether it stands above or below them.
System: NCI-H510 multicellular tumor spheroid growth, % test/control
Test: Anticancer human tumor NCI-H510 cell line growth inhibition [Asc];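 also: spheroids exposed to agents for 7 days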;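 as to viability, T/C: 100% = DMSO vehicle control wells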
Conditions: for IC50: curve of first compound; for viability, T/C: stronger effect = lower value
In short: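 Tumor cells were grown as multicellular spheroids with stromal HUVEC and mesenchymal stem cells and treated singly or in combination. Concentrations fell in half-log steps from the clinical Cmax, or from 10 microM where none was known.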

[1] = second compound 0.1 µM, first compound 0.0316 µM
[2] = second compound 0.1 µM, first compound 0.1 µM
[3] = second compound 0.316 µM, first compound 0.0316 µM
[4] = second compound 0.316 µM, first compound 0.1 µM
[5] = second compound 1 µM, first compound 0.0316 µM
[6] = second compound 1 µM, first compound 0.1 µM
[7] = second compound 3.16 µM, first compound 0.0316 µM
[8] = second compound 3.16 µM, first compound 0.1 µM
[9] = second compound 10 µM, first compound 0.0316 µM
[10] = second compound 10 µM, first compound 0.1 µM

IC50 (second compound 0.1 µM): 8.46 nM
IC50 (second compound 0.316 µM): 9.32 nM
IC50 (second compound 1 µM): 4.76 nM
IC50 (second compound 3.16 µM): 6.9 nM
IC50 (second compound 10 µM): 5 nM
Structure (SMILES): Cn1ncnc1[C@H]1c2n[nH]c(=O)c3cc(F)cc(c23)N[C@@H]1c1ccc(F)cc1 + Cc1c(S(C)(=O)=O)c(-c2cc(F)cc(N3CCN(c4ccc(NS(=O)(=O)c5ccc(NC(CCN6CCC(C(=O)OCCCP(=O)(O)O)CC6)CSc6ccccc6)c(S(=O)(=O)C(F)(F)F)c5)cc4)CC3)c2)c(-c2ccc(Cl)cc2)n1C(C)C
viability, T/C (second compound 0.1 µM, first compound 0.000316 µM): 88%
viability, T/C (second compound 0.1 µM, first compound 0.001 µM): 101%
viability, T/C (second compound 0.1 µM, first compound 0.00316 µM): 58.5%
viability, T/C (second compound 0.1 µM, first compound 0.01 µM): 58.2%
viability, T/C [1]: 9.67%
viability, T/C [2]: 7.11%
viability, T/C (second compound 0.316 µM, first compound 0.000316 µM): 106%
viability, T/C (second compound 0.316 µM, first compound 0.001 µM): 70.3%
viability, T/C (second compound 0.316 µM, first compound 0.00316 µM): 101%
viability, T/C (second compound 0.316 µM, first compound 0.01 µM): 47.3%
viability, T/C [3]: 5.08%
viability, T/C [4]: 5.01%
viability, T/C (second compound 1 µM, first compound 0.000316 µM): 96.2%
viability, T/C (second compound 1 µM, first compound 0.001 µM): 91.8%
viability, T/C (second compound 1 µM, first compound 0.00316 µM): 68.7%
viability, T/C (second compound 1 µM, first compound 0.01 µM): 16.2%
viability, T/C [5]: 2.54%
viability, T/C [6]: 2.95%
viability, T/C (second compound 3.16 µM, first compound 0.000316 µM): 96.9%
viability, T/C (second compound 3.16 µM, first compound 0.001 µM): 79.8%
viability, T/C (second compound 3.16 µM, first compound 0.00316 µM): 92.3%
viability, T/C (second compound 3.16 µM, first compound 0.01 µM): 31.1%
viability, T/C [7]: 12.2%
viability, T/C [8]: 2.55%
viability, T/C (second compound 10 µM, first compound 0.000316 µM): 92.6%
viability, T/C (second compound 10 µM, first compound 0.001 µM): 88.9%
viability, T/C (second compound 10 µM, first compound 0.00316 µM): 81.9%
viability, T/C (second compound 10 µM, first compound 0.01 µM): 1.81%
viability, T/C [9]: 1.16%
viability, T/C [10]: 1.64%

IC50 (second compound 0.01 µM): > 3000 nM
IC50 (second compound 0.0316 µM): > 3000 nM
IC50 (second compound 0.1 µM): > 3000 nM
IC50 (second compound 0.316 µM): > 3000 nM
IC50 (second compound 1 µM): > 3000 nM
Structure (SMILES): CCN1C(C(=O)NC23CCC(C(=O)O)(CC2)CC3)C(c2cccc(Cl)c2F)C2(C(=O)Nc3cc(Cl)ccc32)C12CCCCC2 (stereo not given) + CNC(C)C(=O)NC1CN(S(=O)(=O)c2cccc(S(=O)(=O)N3CCC4CCC(C(=O)NC(c5ccccc5)c5ccccc5)N4C(=O)C(NC(=O)C(C)NC)C3)c2)CCC2CCC(C(=O)NC(c3ccccc3)c3ccccc3)N2C1=O
viability, T/C (second compound 0.01 µM, first compound 0.00949 µM): 130%
viability, T/C (second compound 0.01 µM, first compound 0.03 µM): 104%
viability, T/C (second compound 0.01 µM, first compound 0.0949 µM): 101%
viability, T/C (second compound 0.01 µM, first compound 0.3 µM): 96.7%
viability, T/C (second compound 0.01 µM, first compound 0.949 µM): 108%
viability, T/C (second compound 0.01 µM, first compound 3 µM): 104%
viability, T/C (second compound 0.0316 µM, first compound 0.00949 µM): 108%
viability, T/C (second compound 0.0316 µM, first compound 0.03 µM): 98.3%
viability, T/C (second compound 0.0316 µM, first compound 0.0949 µM): 97.8%
viability, T/C (second compound 0.0316 µM, first compound 0.3 µM): 117%
viability, T/C (second compound 0.0316 µM, first compound 0.949 µM): 131%
viability, T/C (second compound 0.0316 µM, first compound 3 µM): 90.9%
viability, T/C (second compound 0.1 µM, first compound 0.00949 µM): 108%
viability, T/C (second compound 0.1 µM, first compound 0.03 µM): 113%
viability, T/C (second compound 0.1 µM, first compound 0.0949 µM): 106%
viability, T/C (second compound 0.1 µM, first compound 0.3 µM): 101%
viability, T/C (second compound 0.1 µM, first compound 0.949 µM): 93.5%
viability, T/C (second compound 0.1 µM, first compound 3 µM): 121%
viability, T/C (second compound 0.316 µM, first compound 0.00949 µM): 95.3%
viability, T/C (second compound 0.316 µM, first compound 0.03 µM): 117%
viability, T/C (second compound 0.316 µM, first compound 0.0949 µM): 95.5%
viability, T/C (second compound 0.316 µM, first compound 0.3 µM): 109%
viability, T/C (second compound 0.316 µM, first compound 0.949 µM): 92.9%
viability, T/C (second compound 0.316 µM, first compound 3 µM): 107%
viability, T/C (second compound 1 µM, first compound 0.00949 µM): 96.6%
viability, T/C (second compound 1 µM, first compound 0.03 µM): 97.1%
viability, T/C (second compound 1 µM, first compound 0.0949 µM): 94.8%
viability, T/C (second compound 1 µM, first compound 0.3 µM): 99.2%
viability, T/C (second compound 1 µM, first compound 0.949 µM): 97.8%
viability, T/C (second compound 1 µM, first compound 3 µM): 115%

IC50 (second compound 0.1 µM): 1610 nM
IC50 (second compound 0.316 µM): 1520 nM
IC50 (second compound 1 µM): 1490 nM
IC50 (second compound 3.16 µM): 1160 nM
IC50 (second compound 10 µM): 1320 nM
Structure (SMILES): O=C(c1cc(Cc2n[nH]c(=O)c3ccccc23)ccc1F)N1CCN(C(=O)C2CC2)CC1 + Cc1c(S(C)(=O)=O)c(-c2cc(F)cc(N3CCN(c4ccc(NS(=O)(=O)c5ccc(NC(CCN6CCC(C(=O)OCCCP(=O)(O)O)CC6)CSc6ccccc6)c(S(=O)(=O)C(F)(F)F)c5)cc4)CC3)c2)c(-c2ccc(Cl)cc2)n1C(C)C
viability, T/C [1]: 94.8%
viability, T/C [2]: 101%
viability, T/C (second compound 0.1 µM, first compound 0.316 µM): 107%
viability, T/C (second compound 0.1 µM, first compound 1 µM): 74.1%
viability, T/C (second compound 0.1 µM, first compound 3.16 µM): 13.4%
viability, T/C (second compound 0.1 µM, first compound 10 µM): 18.7%
viability, T/C [3]: 124%
viability, T/C [4]: 89.1%
viability, T/C (second compound 0.316 µM, first compound 0.316 µM): 106%
viability, T/C (second compound 0.316 µM, first compound 1 µM): 73.5%
viability, T/C (second compound 0.316 µM, first compound 3.16 µM): 8.58%
viability, T/C (second compound 0.316 µM, first compound 10 µM): 3.25%
viability, T/C [5]: 94.8%
viability, T/C [6]: 112%
viability, T/C (second compound 1 µM, first compound 0.316 µM): 93.2%
viability, T/C (second compound 1 µM, first compound 1 µM): 69.5%
viability, T/C (second compound 1 µM, first compound 3.16 µM): 14.3%
viability, T/C (second compound 1 µM, first compound 10 µM): 3.96%
viability, T/C [7]: 111%
viability, T/C [8]: 121%
viability, T/C (second compound 3.16 µM, first compound 0.316 µM): 87.1%
viability, T/C (second compound 3.16 µM, first compound 1 µM): 63.3%
viability, T/C (second compound 3.16 µM, first compound 3.16 µM): 4.95%
viability, T/C (second compound 3.16 µM, first compound 10 µM): 3.34%
viability, T/C [9]: 81.6%
viability, T/C [10]: 94.5%
viability, T/C (second compound 10 µM, first compound 0.316 µM): 81.5%
viability, T/C (second compound 10 µM, first compound 1 µM): 65.2%
viability, T/C (second compound 10 µM, first compound 3.16 µM): 1.71%
viability, T/C (second compound 10 µM, first compound 10 µM): 1.74%
